US20140081017A1, “Histone Deacetylase Inhibitors for Enhancing Activity of Antifungal Agents” (METHYLGENE INC., priority 2012, published 2014)
Values after ≈ are worked out from the molar mass of the structure shown. Like-named read-outs stand apart in the source and are kept apart here.

How the values were obtained:
Candida albicans = assay: Minimal Inhibitory Concentration (MIC) assay, broth microdilution per CLSI; format: cell-based; conditions: Candida albicans, read-out: Minimum Inhibitory Concentrations against Yeast Isolates, Candida albicans;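 note: two read times 24 hr and 48 hr of incubation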
Procedure, shortened: (§1)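 Steps: overnight yeast growth on Sabouraud dextrose agar at 35° C; 0.5 McFarland saline suspension diluted 1:100 in RPMI (0.165 M MOPS, pH 7.0); inoculation into twofold compound dilutions; incubation 24-48 hr at 35° C; MIC scored as lowest concentration without visible growth.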

Candida parapsilosis [1] = assay: as above; format: cell-based; conditions: Lodderomyces parapsilosis, read-out: Minimum Inhibitory Concentrations against Yeast Isolates, Candida parapsilosis
Procedure, shortened: as §1

Candida glabrata = assay: as above; format: cell-based; conditions: Nakaseomyces glabratus, read-out: Minimum Inhibitory Concentrations against Yeast Isolates, Candida glabrata;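 note: two read times 24 hr and 48 hr of incubation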
Procedure, shortened: as §1

Candida parapsilosis [2] = conditions: 24 hr; range not explained; cited from earlier work
C. glabrata = assay: Checkerboard FIC assay in combination with fluconazole (MIC alone and in combination, FICI); format: cell-based, Candida glabrata; conditions: for FICI of combination resulting in fluconazole MIC of: 2 ug/mL / FICI of combination resulting in fluconazole MIC of: 4 ug/mL / FICI of combination resulting in fluconazole MIC of: 8 ug/mL: FICI calculated using a fluconazole MIC of 16 μg/mL; for FICI of combination resulting in fluconazole MIC of: 2 ug/mL (value in parenthesis) / FICI of combination resulting in fluconazole MIC of: 4 ug/mL (value in parenthesis) / FICI of combination resulting in fluconazole MIC of: 8 ug/mL (value in parenthesis): FICI using a fluconazole MIC of 128 μg/mL; for MIC: Nakaseomyces glabratus; for Concentration of Methylgene compound to synergize fluconazole MIC to 2 ug/mL / Concentration of Methylgene compound to synergize fluconazole MIC to 4 ug/mL / Concentration of Methylgene compound to synergize fluconazole MIC to 8 ug/mL: in combination with fluconazole; for Concentration of Methylgene compound to synergize fluconazole MIC to 2 ug/mL: fluconazole MIC lowered to 2 ug/mL; for Concentration of Methylgene compound to synergize fluconazole MIC to 4 ug/mL: fluconazole MIC lowered to 4 ug/mL; for Concentration of Methylgene compound to synergize fluconazole MIC to 8 ug/mL: fluconazole MIC lowered to 8 ug/mL; for Multiple of compound MIC to synergize fluconazole MIC to 2 ug/mL / Multiple of compound MIC to synergize fluconazole MIC to 4 ug/mL / Multiple of compound MIC to synergize fluconazole MIC to 8 ug/mL: concentration in combination as multiple of the compound's MIC alone; for Multiple of compound MIC to synergize fluconazole MIC to 2 ug/mL: fluconazole MIC 2 ug/mL; for Multiple of compound MIC to synergize fluconazole MIC to 4 ug/mL: fluconazole MIC 4 ug/mL; for Multiple of compound MIC to synergize fluconazole MIC to 8 ug/mL: fluconazole MIC 8 ug/mL
Procedure, shortened: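 A fluconazole synergy checkerboard was run against C. glabrata in MOPS-buffered RPMI (pH 7.0) for about 48 h at 35 °C. Each agent was diluted 2-fold, with one row and one column holding each agent alone for MIC determination. FICI was calculated from these MICs, using a 0.5 McFarland inoculum diluted 1:100 per CLSI.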

[3] = 24 hr reading (first value of cell 24 hr/48 hr)
[4] = 48 hr reading (second value of cell 24 hr/48 hr)
[5] = MIC of the example compound alone against C. glabrata in the checkerboard assay, approximately 48 hr, read-out: Methylgene MIC
[6] = test compound alone, C. glabrata, approx. 48 hr at 35° C., read-out: Compound MIC
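Throughout, for Minimum Inhibitory Concentrations against Yeast Isolates, Candida parapsilosis: two read times 24 hr and 48 hr of incubation.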

| SMILES | MIC (Candida albicans; [3]) [mg/L] | MIC (Candida albicans; [4]) [mg/L] | MIC (Candida parapsilosis [1]; [3]) [mg/L] | MIC (Candida parapsilosis [1]; [4]) [mg/L] | MIC (Candida glabrata; [3]) [mg/L] | MIC (Candida glabrata; [4]) [mg/L] | FICI of combination resulting in fluconazole MIC of: 2 ug/mL (C. glabrata; C. glabrata) | FICI of combination resulting in fluconazole MIC of: 4 ug/mL (C. glabrata; C. glabrata) | FICI of combination resulting in fluconazole MIC of: 8 ug/mL (C. glabrata; C. glabrata) | FICI of combination resulting in fluconazole MIC of: 2 ug/mL (value in parenthesis) (C. glabrata; C. glabrata) | FICI of combination resulting in fluconazole MIC of: 4 ug/mL (value in parenthesis) (C. glabrata; C. glabrata) | FICI of combination resulting in fluconazole MIC of: 8 ug/mL (value in parenthesis) (C. glabrata; C. glabrata) | MIC (C. glabrata; [5]) [mg/L] | MIC (C. glabrata; [6]) [mg/L] | Concentration of Methylgene compound to synergize fluconazole MIC to 2 ug/mL (C. glabrata; C. glabrata) [mg/L] | Concentration of Methylgene compound to synergize fluconazole MIC to 4 ug/mL (C. glabrata; C. glabrata) [mg/L] | Concentration of Methylgene compound to synergize fluconazole MIC to 8 ug/mL (C. glabrata; C. glabrata) [mg/L] | Multiple of compound MIC to synergize fluconazole MIC to 2 ug/mL (C. glabrata) | Multiple of compound MIC to synergize fluconazole MIC to 4 ug/mL (C. glabrata) | Multiple of compound MIC to synergize fluconazole MIC to 8 ug/mL (C. glabrata) | other results |
| --- | --- | --- | --- | --- | --- | --- | --- | --- | --- | --- | --- | --- | --- | --- | --- | --- | --- | --- | --- | --- | --- |
| CC[C@H](C)C[C@H](C)CCCCCCCCC(=O)N[C@H]1C[C@@H](O)[C@@H](NCCN)NC(=O)[C@@H]2[C@@H](O)CCN2C(=O)[C@H]([C@H](O)CCN)NC(=O)[C@H]([C@H](O)[C@@H](O)c2ccc(O)cc2)NC(=O)[C@@H]2C[C@@H](O)CN2C(=O)[C@H]([C@@H](C)O)NC1=O [Caspofungin, reference compound] | 0.06 (≈ 0.0549 µM) | 0.06 (≈ 0.0549 µM) | 0.5 (≈ 0.457 µM) | 0.5 (≈ 0.457 µM) | 0.12 (≈ 0.11 µM) | 0.12 (≈ 0.11 µM) | – | – | – | – | – | – | – | – | – | – | – | – | – | – | MIC range in parentheses below the comparator's MIC, Candida parapsilosis (Candida parapsilosis [2]): 0.25 to 1 mg/L |
| CN1CCN(CCS(=O)(=O)Nc2cccc(CCCCc3ccc(CC(=O)NO)cc3)c2)CC1 [Example 54, N-hydroxy-2-(4-(4-(3-(2-(4-methylpiperazin-1-yl)ethylsulfonamido)phenyl)butyl)phenyl)acetamide] | > 64 | > 64 | > 64 | > 64 | 16 (≈ 32.7 µM) | > 64 | 0.313 | 0.250 | 0.313 | 0.266 | 0.156 | 0.125 | > 16 | > 16 | 8 | 4 | 2 | – | – | – | – |
| CC(C(=O)NO)c1ccc(CCCCc2ccccc2)cc1 (centres unmarked) [Example 55, N-hydroxy-2-(4-(4-phenylbutyl)phenyl)propanamide] | 2 (≈ 6.72 µM) | 4 (≈ 13.4 µM) | 0.5 (≈ 1.68 µM) | 1 (≈ 3.36 µM) | 0.25 (≈ 0.841 µM) | 0.5 (≈ 1.68 µM) | 0.303 | 0.365 | 0.370 | 0.256 | 0.271 | 0.183 | 0.5 | 0.5 | 0.12 | 0.12 | 0.06 | (¼x) | (¼x) | (⅛x) | – |
| CC(C)(C(=O)NO)c1ccc(CCCCc2ccccc2)cc1 [Example 56, N-hydroxy-2-methyl-2-(4-(4-phenylbutyl)phenyl)propanamide] | > 2 | > 2 | > 2 | > 2 | 0.25 (≈ 0.803 µM) | 0.5 (≈ 1.61 µM) | 0.563 | 0.625 | 0.490 | 0.516 | 0.531 | 0.303 | 0.5 | 0.5 | 0.25 | 0.25 | 0.12 | (½x) | (½x) | (¼x) | – |
| O=C(Cc1ccc(CCC(O)Cc2ccccc2)cc1)NO (centres unmarked) [Example 57, N-hydroxy-2-(4-(3-hydroxy-4-phenylbutyl)phenyl)acetamide] | > 64 | > 64 | > 64 | > 64 | 16 (≈ 53.4 µM) | > 64 | 0.563 | 0.625 | 0.500 | 0.516 | 0.531 | 0.313 | > 16 | > 16 | 16 | 16 | 8 | – | – | – | – |
| CC(C(=O)NO)c1ccc(CCC(O)Cc2ccccc2)cc1 (centres unmarked) [Example 58, N-hydroxy-2-(4-(3-hydroxy-4-phenylbutyl)phenyl)propanamide] | > 64 | > 64 | > 64 | > 64 | 8 (≈ 25.5 µM) | 64 (≈ 204 µM) | 0.188 | 0.250 | 0.375 | 0.141 | 0.156 | 0.188 | > 16 | > 16 | 4 | 4 | 4 | – | – | – | – |
| O=C(Cc1ccc(C(O)CCCc2ccccc2)cc1)NO (centres unmarked) [Example 59, N-hydroxy-2-(4-(1-hydroxy-4-phenylbutyl)phenyl)acetamide] | > 64 | > 64 | > 64 | > 64 | 16 (≈ 53.4 µM) | 64 (≈ 214 µM) | 0.313 | 0.375 | 0.375 | 0.266 | 0.281 | 0.188 | > 16 | > 16 | 8 | 8 | 4 | – | – | – | – |
| O=C(Cc1ccc(CCC(F)Cc2ccccc2)cc1)NO (centres unmarked) [Example 60, 2-(4-(3-fluoro-4-phenylbutyl)phenyl)-N-hydroxyacetamide] | 4 (≈ 13.3 µM) | 4 (≈ 13.3 µM) | 4 (≈ 13.3 µM) | 8 (≈ 26.5 µM) | 2 (≈ 6.64 µM) | 2 (≈ 6.64 µM) | 0.563 | 0.625 | 0.500 | 0.516 | 0.531 | 0.313 | 2 | 2 | 1 | 1 | 0.5 | (½x) | (½x) | (¼x) | – |
| O=C(Cc1ccc(C(F)CCCc2ccccc2)cc1)NO (centres unmarked) [Example 61, 2-(4-(1-fluoro-4-phenylbutyl)phenyl)-N-hydroxyacetamide] | 4 (≈ 13.3 µM) | 8 (≈ 26.5 µM) | 8 (≈ 26.5 µM) | 16 (≈ 53.1 µM) | 2 (≈ 6.64 µM) | 4 (≈ 13.3 µM) | 0.313 | 0.375 | 0.375 | 0.266 | 0.281 | 0.188 | 4 | 4 | 1 | 1 | 0.5 | (¼x) | (¼x) | (⅛x) | – |
